In US8536183B2, “3-pyridylcarbonyl-piperazinylsulfonyl derivatives” (Convergence Pharmaceuticals Limited, priority 2008, dated 2013):
Structures can show the parent of a compound that is named as a salt.

biological target: T1, hCaV2.2 (Homo sapiens, UniProt Q00975); experiment: hCaV2.2 assay, IonWorks planar array electrophysiology in stably transfected HEK293 cells; type: cell-based; settings: current elicited by the 1st depolarising pulse inhibited by 50%; HEK293 cells expressing human CaV2.2 alpha/beta3/alpha2delta1; read-out: mean pIC50 (tonic pIC50) (converted)
T1 construct: expressed in transfected cells; plasmids pCIN5-hCaV2.2, pCIH-hCaV β3, pCIP-α2δ1
T1 sequence (Q00975 whole entry): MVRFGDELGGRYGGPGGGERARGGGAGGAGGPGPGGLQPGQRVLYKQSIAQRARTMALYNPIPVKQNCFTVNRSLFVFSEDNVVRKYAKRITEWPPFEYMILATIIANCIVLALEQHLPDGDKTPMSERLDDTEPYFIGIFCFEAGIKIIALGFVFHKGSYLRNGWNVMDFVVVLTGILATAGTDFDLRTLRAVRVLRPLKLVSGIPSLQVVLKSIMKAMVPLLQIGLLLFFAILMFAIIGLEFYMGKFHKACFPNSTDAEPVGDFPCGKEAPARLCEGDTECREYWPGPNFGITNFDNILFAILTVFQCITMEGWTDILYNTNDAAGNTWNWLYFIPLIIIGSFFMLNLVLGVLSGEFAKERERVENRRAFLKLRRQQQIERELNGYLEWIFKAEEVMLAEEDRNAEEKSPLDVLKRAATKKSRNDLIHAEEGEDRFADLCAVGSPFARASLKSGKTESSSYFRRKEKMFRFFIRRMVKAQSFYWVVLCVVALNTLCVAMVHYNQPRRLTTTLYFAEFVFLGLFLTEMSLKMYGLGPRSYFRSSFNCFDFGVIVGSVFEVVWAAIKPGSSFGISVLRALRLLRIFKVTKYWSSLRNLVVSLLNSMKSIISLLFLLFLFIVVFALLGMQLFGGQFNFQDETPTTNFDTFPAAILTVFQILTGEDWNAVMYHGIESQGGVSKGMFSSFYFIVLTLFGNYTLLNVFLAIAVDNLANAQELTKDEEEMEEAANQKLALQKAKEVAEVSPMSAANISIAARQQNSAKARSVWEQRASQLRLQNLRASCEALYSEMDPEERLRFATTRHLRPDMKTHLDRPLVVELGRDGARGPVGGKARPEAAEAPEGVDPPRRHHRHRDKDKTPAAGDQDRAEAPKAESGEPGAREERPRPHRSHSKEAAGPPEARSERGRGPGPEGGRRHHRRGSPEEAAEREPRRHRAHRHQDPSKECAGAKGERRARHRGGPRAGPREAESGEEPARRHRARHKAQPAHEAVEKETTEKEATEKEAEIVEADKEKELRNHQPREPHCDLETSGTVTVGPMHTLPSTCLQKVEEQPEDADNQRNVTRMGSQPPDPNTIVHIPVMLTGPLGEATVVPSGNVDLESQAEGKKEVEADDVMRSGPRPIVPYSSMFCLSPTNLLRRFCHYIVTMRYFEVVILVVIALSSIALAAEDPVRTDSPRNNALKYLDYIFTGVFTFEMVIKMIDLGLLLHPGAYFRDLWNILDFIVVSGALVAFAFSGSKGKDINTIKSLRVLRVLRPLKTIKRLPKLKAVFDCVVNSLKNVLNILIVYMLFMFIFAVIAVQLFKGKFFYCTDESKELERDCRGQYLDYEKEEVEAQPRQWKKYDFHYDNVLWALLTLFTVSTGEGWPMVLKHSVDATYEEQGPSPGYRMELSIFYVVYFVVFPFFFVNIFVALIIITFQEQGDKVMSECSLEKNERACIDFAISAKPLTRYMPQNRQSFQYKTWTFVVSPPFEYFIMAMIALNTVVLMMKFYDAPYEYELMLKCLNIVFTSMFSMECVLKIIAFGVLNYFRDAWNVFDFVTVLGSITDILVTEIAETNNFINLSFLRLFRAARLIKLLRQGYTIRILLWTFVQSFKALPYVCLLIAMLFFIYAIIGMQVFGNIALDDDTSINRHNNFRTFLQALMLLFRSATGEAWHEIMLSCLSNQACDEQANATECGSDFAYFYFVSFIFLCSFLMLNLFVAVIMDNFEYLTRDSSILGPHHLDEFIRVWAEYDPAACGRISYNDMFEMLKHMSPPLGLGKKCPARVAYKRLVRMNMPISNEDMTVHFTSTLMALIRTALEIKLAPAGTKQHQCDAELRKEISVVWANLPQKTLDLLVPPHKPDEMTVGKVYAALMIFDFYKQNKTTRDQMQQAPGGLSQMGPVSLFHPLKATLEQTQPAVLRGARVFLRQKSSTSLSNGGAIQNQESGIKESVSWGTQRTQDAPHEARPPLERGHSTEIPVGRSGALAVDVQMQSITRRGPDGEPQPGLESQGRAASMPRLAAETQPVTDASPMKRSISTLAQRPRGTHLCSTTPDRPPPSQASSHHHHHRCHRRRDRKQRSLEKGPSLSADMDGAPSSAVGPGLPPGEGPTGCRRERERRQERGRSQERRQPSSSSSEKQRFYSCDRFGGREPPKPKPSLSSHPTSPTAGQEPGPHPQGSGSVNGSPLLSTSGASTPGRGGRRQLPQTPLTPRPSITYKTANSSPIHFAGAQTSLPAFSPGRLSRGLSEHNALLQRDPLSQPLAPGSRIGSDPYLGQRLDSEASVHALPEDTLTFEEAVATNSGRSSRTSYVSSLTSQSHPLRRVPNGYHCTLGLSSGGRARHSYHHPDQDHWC
Description: Compounds of the invention may be tested for in vitro biological activity in the hCaV2.2 assay in accordance with the following studies:
Stable cell lines expressing the human CaV2.2 α (als) subunit, along with the human […] and α2δ1 auxiliary subunits were created following sequential transfection and selection of human embryonic kidney (HEK293) cells. HEK293 cells were cultured in Dulbecco's modified Eagles media/F12 media (Invitrogen, Cat #041-95750V) containing 10% foetal bovine serum, with added L-glutamine (2 mM; Invitrogen, Cat #25030-024) and non-essential amino acids (5%; Invitrogen, Cat #11140-035). Initially HEK293 cells were transfected with two plasmid vectors for expression of the hCaV2.2 α subunit (pCIN5-hCaV2.2 which carries a neomycin resistance marker) and the hCaV β3 subunit (pCIH-hCaV β3 which carries a hygromycin resistance marker). Clonal cell lines were isolated following selection in media supplemented with 0.4 mg ml^−1 Geneticin G418 (Invitrogen, Cat #10131-027) and 0.1 mg ml^1 hygromycin (Invitrogen, Cat #10687-010). These clonal cell lines were assessed for Cav2.2α/β3-mediated current expression using the IonWorks planar array electrophysiology technology (described below). A clonal line was identified that gave a reasonable level of functional Cav2.2α/β3 current expression. This cell line was transfected with a plasmid vector for expression of the human […] subunit (pCIP-α2δ1 which carries a puromycin resistance marker) and clonal cell lines isolated following selection in media containing 0.62 μg ml^−1 puromycin (Sigma, Cat #P-7255), in addition to 0.4 mg ml^−1 Geneticin G418 and 0.1 mg ml^−1 hygromycin. Several cell lines were identified that gave robust levels of Cav2.2α/β3/α2δ1-mediated current expression and one of these was selected for compound profiling. Expression of all three subunits within this cell line was continuously maintained by the inclusion of G418 (0.4 mg ml^−1), hygromycin (0.1 mg ml^−1) and puromycin (0.62 μg ml^−1). Cells were maintained at 37° C. in a humidified environment containing 5% CO2 in air. Cells were liberated from the T175 culture flasks for passage and harvesting using TrpLE (Invitrogen, Cat #12604-013).
Cells were grown to 30-60% confluence in T175 flasks and maintained at 30° C. for 24 hrs prior to recording. Cells were lifted by removing the growth media, washing with Ca^2+ free PBS (Invitrogen, Cat #14190-094) and incubating with 3 ml of warmed (37° C.) TrpLE (Invitrogen, Cat #12604-013) for 6 minutes. Lifted cells were suspended in 10 ml of extracellular buffer. Cell suspension was then placed into a 15 ml tube and centrifuged for 2 minutes at 700 rpm. After centrifugation, the supernatant was removed and the cell pellet was resuspended in 4.5 ml of extracellular solution.
Currents were recorded at room temperature (21-23° C.) using the IonWorks planar array electrophysiology technology (Molecular Devices Corp.). Stimulation protocols and data acquisition were carried out using a microcomputer (Dell Pentium 4). In order to determine planar electrode hole resistances (Rp), a 10 mV, 160 ms potential difference was applied across each hole. These measurements were performed before cell addition. After cell addition a seal test was performed prior to antibiotic (amphotericin) circulation to achieve intracellular access. Leak subtraction was conducted in all experiments by applying a 160 ms hyperpolarizing (10 mV) prepulse 200 ms before the test pulses to measure leak conductance. Test pulses stepping from the holding potential (VH) of −90 mV to +10 mV were applied for 20 ms and repeated 10 times at a frequency of 10 Hz. In all experiments, the test pulse protocol was performed in the absence (pre-read) and presence (post-read) of a compound. Pre- and post-reads were separated by a compound addition followed by a 3-3.5 min incubation.
The intracellular solution contained the following (in mM): K-gluconate 120, KCl 20 mM, MgCl2 5, EGTA 5, HEPES 10, adjusted to pH 7.3. […]

SMILES	IC50
Cc1ncccc1C(=O)N1CCN(S(=O)(=O)c2ccc(OC(F)(F)F)cc2)C[C@@H]1C [Example 64, (2S)-2-methyl-1-[(2-methyl-3-pyridinyl)carbonyl]-4-({4-[(trifluoromethyl)oxy]phenyl}sulfonyl)piperazine]	≥ 31.6 µM
Cc1ncccc1C(=O)N1CCN(S(=O)(=O)c2ccc(OC(F)(F)F)cc2)C[C@H]1C [Example 65, (2R)-2-methyl-1-[(2-methyl-3-pyridinyl)carbonyl]-4-({4-[(trifluoromethyl)oxy]phenyl}sulfonyl)piperazine]	≥ 31.6 µM
Cc1ccc(C(=O)N2CCN(S(=O)(=O)c3ccc(C(F)(F)F)cc3C)CC2)cn1 [Example 74, 1-[(6-methyl-3-pyridinyl)carbonyl]-4-{[2-methyl-4-(trifluoromethyl)phenyl]sulfonyl}piperazine]	≥ 31.6 µM
C[C@H]1CN(S(=O)(=O)c2ccc(C(F)(F)F)cc2)CCN1C(=O)c1ccc(N(C)C)nc1 [Example 41, N,N-Dimethyl-5-[((2S)-2-methyl-4-{[4-(trifluoromethyl)phenyl]sulfonyl}-1-piperazinyl)carbonyl]-2-pyridinamine hydrochloride]	≥ 10 µM
Cc1ccc(C(=O)N2CCN(S(=O)(=O)c3ccc(OC(F)F)cc3)CC2)cn1 [Example 73, 1-({4-[(difluoromethyl)oxy]phenyl}sulfonyl)-4-[(6-methyl-3-pyridinyl)carbonyl]piperazine]	≥ 31.6 µM

Second part, the molecule after the results:

IC50	SMILES
≥ 31.6 µM	CCc1ccc(C(=O)N2CCN(S(=O)(=O)c3ccc(C#N)cc3C)C[C@@H]2C)cn1 [Example 53, 4-({(3S)-4-[(6-ethyl-3-pyridinyl)carbonyl]-3-methyl-1-piperazinyl}sulfonyl)-3-methylbenzonitrile hydrochloride]
≥ 31.6 µM	Cc1ccc(C(=O)N2CCN(S(=O)(=O)c3ccc(C#N)cc3C)[C@@H](C)C2)cn1 [Example 52, 3-methyl-4-({(2S)-2-methyl-4-[(6-methyl-3-pyridinyl)carbonyl]-1-piperazinyl}sulfonyl)benzonitrile hydrochloride]
≥ 31.6 µM	Cc1ccc(C(=O)N2CCN(S(=O)(=O)c3ccc(C#N)cc3C)C[C@@H]2C)cn1 [Example 17, 3-Methyl-4-({(3S)-3-methyl-4-[(6-methyl-3-pyridinyl)carbonyl]-1-piperazinyl}sulfonyl)benzonitrile]
≥ 31.6 µM	CNc1ccc(C(=O)N2CCN(S(=O)(=O)c3ccc(C#N)cc3C)C[C@@H]2C)c(C)n1 [Example 38, 3-Methyl-4-[((3S)-3-methyl-4-{[2-methyl-6-(methylamino)-3-pyridinyl]carbonyl}-1-piperazinyl)sulfonyl]benzonitrile]
